Results from BindingDB's records for doi:10.1021/acsmedchemlett.5b00050 (Genomics Institute of The Novartis Research Foundation, 2015).
Blank lines part the entries; values can stand above or below the molecule they belong to.

Tests used:
[1] = Inhibition of Tel-fused TRKA (unknown origin) overexpressed in mouse BA/F3 cells assessed as inhibition of cell proliferation after 48 hrs by luciferase reporter gene assay in absence of recombinant mouse IL3
[2] = Inhibition of Tel-fused TRKB (unknown origin) overexpressed in mouse BA/F3 cells assessed as inhibition of cell proliferation after 48 hrs by luciferase reporter gene assay in absence of recombinant mouse IL3
[3] = Inhibition of Tel-fused BMX (unknown origin) expressed in mouse BA/F3 cells after 48 hrs by luciferase reporter gene assay in absence of recombinant mouse IL3
[4] = Inhibition of Tel-fused KIT (unknown origin) expressed in mouse BA/F3 cells after 48 hrs by luciferase reporter gene assay in absence of recombinant mouse IL3
[5] = Inhibition of Tel-fused FGFR3 (unknown origin) expressed in mouse BA/F3 cells after 48 hrs by luciferase reporter gene assay in absence of recombinant mouse IL3
[6] = Inhibition of Tel-fused MET (unknown origin) expressed in mouse BA/F3 cells after 48 hrs by luciferase reporter gene assay in absence of recombinant mouse IL3
[7] = Inhibition of Tel-fused SYK (unknown origin) expressed in mouse BA/F3 cells after 48 hrs by luciferase reporter gene assay in absence of recombinant mouse IL3
[8] = Inhibition of Tel-fused FGFR4 (unknown origin) expressed in mouse BA/F3 cells after 48 hrs by luciferase reporter gene assay in absence of recombinant mouse IL3
[9] = Inhibition of Tel-fused BRAF (unknown origin) expressed in mouse BA/F3 cells after 48 hrs by luciferase reporter gene assay in absence of recombinant mouse IL3
[10] = Inhibition of Tel-fused ROS (unknown origin) expressed in mouse BA/F3 cells after 48 hrs by luciferase reporter gene assay in absence of recombinant mouse IL3
[11] = Inhibition of Tel-fused RON (unknown origin) expressed in mouse BA/F3 cells after 48 hrs by luciferase reporter gene assay in absence of recombinant mouse IL3
[12] = Inhibition of Tel-fused LCK (unknown origin) expressed in mouse BA/F3 cells after 48 hrs by luciferase reporter gene assay in absence of recombinant mouse IL3
[13] = Inhibition of Tel-fused FLT3 (unknown origin) expressed in mouse BA/F3 cells after 48 hrs by luciferase reporter gene assay in absence of recombinant mouse IL3
[14] = Inhibition of Tel-fused ALK (unknown origin) expressed in mouse BA/F3 cells after 48 hrs by luciferase reporter gene assay in absence of recombinant mouse IL3
[15] = Inhibition of Tel-fused FLT1 (unknown origin) expressed in mouse BA/F3 cells after 48 hrs by luciferase reporter gene assay in absence of recombinant mouse IL3
[16] = Inhibition of Tel-fused PDGFRbeta (unknown origin) expressed in mouse BA/F3 cells after 48 hrs by luciferase reporter gene assay in absence of recombinant mouse IL3
[17] = Inhibition of Tel-fused FMS (unknown origin) expressed in mouse BA/F3 cells after 48 hrs by luciferase reporter gene assay in absence of recombinant mouse IL3
[18] = Inhibition of Tel-fused IGF1R (unknown origin) expressed in mouse BA/F3 cells after 48 hrs by luciferase reporter gene assay in absence of recombinant mouse IL3
[19] = Inhibition of BCR-fused ABL (unknown origin) expressed in mouse BA/F3 cells after 48 hrs by luciferase reporter gene assay in absence of recombinant mouse IL3
[20] = Inhibition of Tel-fused MER (unknown origin) expressed in mouse BA/F3 cells after 48 hrs by luciferase reporter gene assay in absence of recombinant mouse IL3
[21] = Inhibition of Tel-fused FGR (unknown origin) expressed in mouse BA/F3 cells after 48 hrs by luciferase reporter gene assay in absence of recombinant mouse IL3
[22] = Inhibition of Tel-fused INSR (unknown origin) expressed in mouse BA/F3 cells after 48 hrs by luciferase reporter gene assay in absence of recombinant mouse IL3
[23] = Inhibition of Tel-fused ZAP70 (unknown origin) expressed in mouse BA/F3 cells after 48 hrs by luciferase reporter gene assay in absence of recombinant mouse IL3
[24] = Inhibition of Tel-fused TIE1 (unknown origin) expressed in mouse BA/F3 cells after 48 hrs by luciferase reporter gene assay in absence of recombinant mouse IL3
[25] = Inhibition of Tel-fused TRKC (unknown origin) overexpressed in mouse BA/F3 cells assessed as inhibition of cell proliferation after 48 hrs by luciferase reporter gene assay in absence of recombinant mouse IL3
[26] = Inhibition of Tel-fused KDR (unknown origin) expressed in mouse BA/F3 cells after 48 hrs by luciferase reporter gene assay in absence of recombinant mouse IL3
[27] = Inhibition of TPM3-fused TRKA (unknown origin) expressed in human KM12 cells assessed as inhibition of cell proliferation after 48 hrs by luciferase reporter gene assay
[28] = Inhibition of Tel-fused RET (unknown origin) expressed in mouse BA/F3 cells after 48 hrs by luciferase reporter gene assay in absence of recombinant mouse IL3
[29] = Inhibition of NMP-fused ALK (unknown origin) expressed in mouse BA/F3 cells after 48 hrs by luciferase reporter gene assay in absence of recombinant mouse IL3
[30] = Inhibition of Tel-fused LYN (unknown origin) expressed in mouse BA/F3 cells after 48 hrs by luciferase reporter gene assay in absence of recombinant mouse IL3
[31] = Inhibition of NGF-activated full length TRKA (unknown origin) expressed in mouse BA/F3 cells assessed as inhibition of cell proliferation
[32] = Inhibition of Tel-fused SRC (unknown origin) expressed in mouse BA/F3 cells after 48 hrs by luciferase reporter gene assay in absence of recombinant mouse IL3
[33] = Inhibition of Tel-fused TYRO3 (unknown origin) expressed in mouse BA/F3 cells after 48 hrs by luciferase reporter gene assay in absence of recombinant mouse IL3

Structure (SMILES): N#Cc1cccc(-c2cnc3ccc(NCc4ccccc4)nn23)c1
IC50 [1]: 740 nM
IC50 [2]: 200 nM

Structure (SMILES): Fc1cccc([C@H]2CCCN2c2ccc3ncc(-c4ccccn4)n3n2)c1
IC50 [3]: > 10000 nM
IC50 [4]: 5500 nM
IC50 [10]: 600 nM
IC50 [17]: > 10000 nM
IC50 [21]: 8700 nM
IC50 [25]: 1 nM
IC50 [2]: 1 nM

Structure (SMILES): OCc1ccc(-c2cnc3ccc(NCc4cccc(F)c4)nn23)cc1
IC50 [1]: 76 nM
IC50 [2]: 27 nM

Structure (SMILES): NS(=O)(=O)c1ccc(-c2cnc3ccc(NCc4cccc(F)c4)nn23)cc1
IC50 [1]: 27 nM
IC50 [2]: 13 nM

Structure (SMILES): N#Cc1ccc(-c2cnc3ccc(NCc4cccc(F)c4)nn23)cc1
IC50 [1]: 50 nM
IC50 [2]: 21 nM

Structure (SMILES): N#Cc1ccc(-c2cnc3ccc(N4CCC[C@@H]4c4cccc(F)c4)nn23)cc1
IC50 [2]: 11 nM

Structure (SMILES): O=C(Nc1ccc(-c2cnc3ccc(NCc4cccc(F)c4)nn23)cc1)C1CCOCC1
IC50 [1]: 6 nM
IC50 [2]: 7 nM

Structure (SMILES): OC1CCN(c2cc(-c3cnc4ccc(N5CCC[C@@H]5c5cccc(F)c5)nn34)ccn2)CC1
IC50 [3]: 4300 nM
IC50 [4]: 7000 nM
IC50 [5]: 5000 nM
IC50 [27]: 10 nM
IC50 [7]: 7900 nM
IC50 [8]: 4400 nM
IC50 [10]: 210 nM
IC50 [11]: 4800 nM
IC50 [29]: 3000 nM
IC50 [12]: 5200 nM
IC50 [30]: 4900 nM
IC50 [13]: 4300 nM
IC50 [31]: 3 nM
IC50 [14]: 3900 nM
IC50 [15]: 5300 nM
IC50 [16]: 4600 nM
IC50 [17]: 5300 nM
IC50 [1]: 4 nM
IC50 [19]: 5200 nM
IC50 [20]: 5100 nM
IC50 [32]: 4600 nM
IC50 [25]: 2 nM
IC50 [33]: 5000 nM
IC50 [26]: 5000 nM
IC50 [2]: 4 nM

Structure (SMILES): CN(Cc1ccccc1)c1ccc2ncc(-c3ccc(C#N)cc3)n2n1
IC50 [1]: 520 nM
IC50 [2]: 130 nM

Structure (SMILES): N#Cc1ccc(-c2cnc3ccc(N4CCCCC4c4cccc(F)c4)nn23)cc1 (centres undefined)
IC50 [2]: 50 nM

Further molecules by falling IC50 [2], results first:

IC50 [2]: 1970 nM
Structure (SMILES): N#Cc1ccc(-c2cnc3ccc(N4CCC[C@H]4c4cccc(F)c4)nn23)cc1

IC50 [3]: 9700 nM
IC50 [4]: 2200 nM
IC50 [5]: 3900 nM
IC50 [6]: 5100 nM
IC50 [7]: 4000 nM
IC50 [8]: 5900 nM
IC50 [9]: 2500 nM
IC50 [10]: 300 nM
IC50 [11]: 6100 nM
IC50 [12]: 2000 nM
IC50 [13]: 720 nM
IC50 [14]: 3100 nM
IC50 [15]: 3000 nM
IC50 [16]: 2000 nM
IC50 [17]: 3400 nM
IC50 [18]: 4000 nM
IC50 [1]: 850 nM
IC50 [19]: 3800 nM
IC50 [20]: 5400 nM
IC50 [21]: 6400 nM
IC50 [22]: 8600 nM
IC50 [23]: 6400 nM
IC50 [24]: 5500 nM
IC50 [25]: 100 nM
IC50 [26]: 4100 nM
IC50 [2]: 270 nM
Structure (SMILES): N#Cc1ccc(-c2cnc3ccc(NCc4ccccc4)nn23)cc1

IC50 [1]: 170 nM
IC50 [2]: 120 nM
Structure (SMILES): COc1ccccc1CNc1ccc2ncc(-c3ccc(C#N)cc3)n2n1

IC50 [2]: 29 nM
Structure (SMILES): N#Cc1ccc(-c2cnc3ccc(N4CCCC4c4cccc(F)c4)nn23)cc1 (centres undefined)

IC50 [2]: 4 nM
Structure (SMILES): OC1CCN(c2cccc(-c3cnc4ccc(N5CCC[C@@H]5c5cccc(F)c5)nn34)n2)CC1

IC50 [4]: 790 nM
IC50 [27]: 1 nM
IC50 [6]: 4300 nM
IC50 [7]: 4400 nM
IC50 [8]: 5300 nM
IC50 [9]: 6200 nM
IC50 [10]: 60 nM
IC50 [28]: 3700 nM
IC50 [29]: 1200 nM
IC50 [12]: 3000 nM
IC50 [30]: 3400 nM
IC50 [13]: 3300 nM
IC50 [31]: 1 nM
IC50 [14]: 2200 nM
IC50 [16]: 2200 nM
IC50 [17]: 2500 nM
IC50 [18]: 5100 nM
IC50 [1]: 1 nM
IC50 [19]: 2400 nM
IC50 [22]: 5300 nM
IC50 [32]: 2500 nM
IC50 [23]: 5200 nM
IC50 [24]: 4300 nM
IC50 [25]: < 1 nM
IC50 [33]: 5200 nM
IC50 [26]: 1000 nM
IC50 [2]: 1 nM
Structure (SMILES): O=C(O)CN1CCN(c2cc(-c3cnc4ccc(N5CCC[C@@H]5c5cccc(F)c5)nn34)ccn2)CC1
